The text below walks through data of US20130012519A1, “Biomarker Identifying the Reactivation of STAT3 After Src Inhibition” (BRISTOL-MYERS SQUIBB COMPANY, priority 2006, published 2013).

Test [1] has as its system STAT3. The test can be described thus: Western blot / Bioplex phosphoprotein assay, STAT3 activation (pY705-STAT3) in cancer cell lines. To be noted: for STAT3 inhibition on addition of JAK inhibitor to dasatinib: JAK inhibitor added to dasatinib; for effect of added inhibitor on STAT3 reactivation by dasatinib: Tu167 cells treated with dasatinib plus the inhibitor; for STAT3 inhibition / re-activation: Tu167 cells treated with one of three SFK inhibitors for 24 hours.
Experimental: Quantitative Bioplex Phosphoprotein Assay. […] Protein lysates were prepared by using cell lysis buffer with PMSF (Bio-Rad laboratories, Life Science Research Group, Hercules, Calif., USA) on samples collected. Phosphorylated proteins were detected by Bio-Rad phosphoprotein immunoassay kit using Bio-Plex 100 system with workstation (Bio-Rad) according to the manufacturer's protocol. The targeted phosphorylated proteins included the following: Akt (Ser473), ERK-1/2 (Thr202/Tyr204) and STAT3 (Tyr705). Briefly, 50 nl of cell lysate (adjusted to a concentration of 200-900 μg/ml of protein) was plated in the 96 well filter plate coated with anti-phospho-protein antibodies coupled beads and allowed to incubate overnight (16 hours) on a platform shaker at 300 rpm at room temperature. After vacuum-filter and washing the wells; 1 microliter of detection antibodies (25×) were added, vortexed and then incubated for 30 minutes. […] Data acquisition and analysis was completed by using Bio-Plex manager (V4.1.1. software).

Another test concerns wild-type BCR-ABL. The settings on record: read-out: IC50 against wild-type BCR-ABL; Weisberg et al. 2006; cited from earlier work.
Test [2] concerns imatinib-resistant BCR-ABL mutants. The settings on record: number of mutants out of those tested; Weisberg et al. 2006; cited from earlier work.
The target in the next test is T1, c-Src (Homo sapiens, UniProt P12931).
T1 construct: endogenous in cells; host or cells: fifteen human cancer cell lines (HNSCC incl. Tu167, NSCLC, mesothelioma, squamous skin cancer)
Put plainly: Western blot, c-Src inhibition in cancer cell lines. The class given is cell-based. To be noted: Tu167 cells treated with one of three SFK inhibitors for 24 hours.

A further test concerns AKT. Put plainly: Western blot, AKT downstream of Src in cancer cell lines. The class given is cell-based, human.
The subject of a further test is STAT5. The test can be described thus: Western blot, STAT5 downstream of Src in cancer cell lines. The class given is cell-based, human.
For a further test, the system named is FAK. Put plainly: Western blot, FAK downstream of Src in cancer cell lines. The class given is cell-based, human.
The target in another test is T2, IGF1R (Homo sapiens, UniProt P08069).
T2 construct: endogenous in cells
The test can be described thus: IGF1R activation in cells. The class given is cell-based. The settings on record: cells treated with dasatinib.

The next test relates to IL-6. Put plainly: Cytokine profiling of cell media (25-plex bead kit), IL-6. To be noted: 100 nM dasatinib; serum-free and complete medium; 6 and 24 h. The class given is cell-based, human.
Another test relates to IL-8. Put plainly: Cytokine profiling of cell media (25-plex bead kit), IL-8. It is filed as cell-based, human. To be noted: 100 nM dasatinib; serum-free and complete medium; 6 and 24 h.
Test [3] has as its system 25 human cytokines/chemokines. The test can be described thus: Cytokine profiling of cell media (25-plex bead kit), other cytokines. It is filed as cell-based. The settings on record: 100 nM dasatinib; serum-free and complete medium; 6 and 24 h.
Test [4] relates to MAPK. The settings on record: HNSCC cells treated with dasatinib; Johnson et al. 2005; cited from earlier work.
The test system of test [5] is head and neck squamous carcinoma and non-small cell lung cancer cell lines. To be noted: cited from earlier work.
In test [6] the test system is STAT3. The settings on record: panel of NSCLC cell lines with mutant or wild-type EGFR; literature; cited from earlier work.
Test [7] concerns MAPK. Put plainly: Western blot, MAPK activation in HNSCC cells. To be noted: Tu167 cells treated with EGF.
[8] abbreviates: Tu167 cells, 100 nM dasatinib for the indicated times.
The mark [9] stands for this setting: all fifteen human cancer cell lines, 100 nM dasatinib, 0-24 h.

Entries after “also recorded” stand apart in the source; their conditions may differ. Bounds are passed on as bounds.

T1 sequence (P12931 whole entry): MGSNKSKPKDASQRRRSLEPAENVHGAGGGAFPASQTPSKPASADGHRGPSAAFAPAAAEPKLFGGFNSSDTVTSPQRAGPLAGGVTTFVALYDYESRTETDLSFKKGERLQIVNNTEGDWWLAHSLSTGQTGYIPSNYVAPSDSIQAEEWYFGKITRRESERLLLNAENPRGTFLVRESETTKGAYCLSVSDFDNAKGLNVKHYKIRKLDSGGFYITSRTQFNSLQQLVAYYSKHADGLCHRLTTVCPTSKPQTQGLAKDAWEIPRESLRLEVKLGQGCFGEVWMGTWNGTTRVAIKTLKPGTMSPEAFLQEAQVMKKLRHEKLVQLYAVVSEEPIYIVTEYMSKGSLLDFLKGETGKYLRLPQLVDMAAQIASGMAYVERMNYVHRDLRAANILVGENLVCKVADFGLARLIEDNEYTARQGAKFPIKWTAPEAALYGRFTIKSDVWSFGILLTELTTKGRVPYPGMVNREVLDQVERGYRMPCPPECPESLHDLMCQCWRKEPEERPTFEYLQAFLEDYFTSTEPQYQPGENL
T2 sequence (P08069 31-1367): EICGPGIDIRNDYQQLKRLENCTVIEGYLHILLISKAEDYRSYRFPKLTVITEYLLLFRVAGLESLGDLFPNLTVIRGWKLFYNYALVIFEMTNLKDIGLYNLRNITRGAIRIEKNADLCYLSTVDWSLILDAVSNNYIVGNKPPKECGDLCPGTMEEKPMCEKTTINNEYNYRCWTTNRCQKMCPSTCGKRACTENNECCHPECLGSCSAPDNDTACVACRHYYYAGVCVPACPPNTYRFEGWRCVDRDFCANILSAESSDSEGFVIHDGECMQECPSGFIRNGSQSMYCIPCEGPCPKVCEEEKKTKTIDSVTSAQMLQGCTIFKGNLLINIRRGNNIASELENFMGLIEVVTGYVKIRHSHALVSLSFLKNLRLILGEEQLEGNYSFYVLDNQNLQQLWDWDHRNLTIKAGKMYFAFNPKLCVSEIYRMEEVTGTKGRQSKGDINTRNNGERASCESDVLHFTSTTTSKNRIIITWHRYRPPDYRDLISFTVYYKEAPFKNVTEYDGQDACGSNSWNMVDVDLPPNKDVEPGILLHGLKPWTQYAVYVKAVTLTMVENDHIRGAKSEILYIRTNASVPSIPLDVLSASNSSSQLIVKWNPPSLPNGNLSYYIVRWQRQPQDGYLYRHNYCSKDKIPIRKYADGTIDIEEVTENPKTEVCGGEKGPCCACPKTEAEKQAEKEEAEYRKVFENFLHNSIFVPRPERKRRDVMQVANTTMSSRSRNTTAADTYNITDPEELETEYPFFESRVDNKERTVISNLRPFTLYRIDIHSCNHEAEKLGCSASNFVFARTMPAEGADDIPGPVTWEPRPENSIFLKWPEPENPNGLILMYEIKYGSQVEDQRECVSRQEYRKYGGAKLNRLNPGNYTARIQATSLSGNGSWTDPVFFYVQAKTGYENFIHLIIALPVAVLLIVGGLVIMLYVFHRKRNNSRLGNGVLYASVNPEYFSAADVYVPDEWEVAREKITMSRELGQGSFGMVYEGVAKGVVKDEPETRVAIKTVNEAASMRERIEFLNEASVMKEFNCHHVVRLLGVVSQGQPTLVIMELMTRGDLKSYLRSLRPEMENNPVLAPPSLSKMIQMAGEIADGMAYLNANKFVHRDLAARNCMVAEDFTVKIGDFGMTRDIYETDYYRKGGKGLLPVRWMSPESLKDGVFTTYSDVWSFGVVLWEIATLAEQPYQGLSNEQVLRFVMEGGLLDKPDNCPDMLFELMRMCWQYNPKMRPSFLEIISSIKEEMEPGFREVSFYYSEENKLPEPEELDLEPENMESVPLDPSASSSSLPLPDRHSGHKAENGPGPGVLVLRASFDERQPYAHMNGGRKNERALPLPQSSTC

On to `N#C/C(=C/c1ccc(O)c(O)c1)C(=O)NCc1ccccc1` [AG490], for which the “STAT3 inhibition on addition of JAK inhibitor to dasatinib” value with STAT3 [1] is listed as “sustained inhibition of STAT3”.

Regarding `Cc1cn(-c2cc(NC(=O)c3ccc(C)c(Nc4nccc(-c5cccnc5)n4)c3)cc(C(F)(F)F)c2)cn1` [AMN107], the IC50 in the test with wild-type BCR-ABL was […]. Further, in test [2], the “imatinib-resistant BCR-ABL mutants against which significantly active” value is given as 32/33.

Turning to `COc1cccc(-c2cc(=O)c3ccccc3o2)c1N` [PD98059], the “effect of added inhibitor on STAT3 reactivation by dasatinib” value in the test with STAT3 [1] was “no effect on STAT3 reactivation”.

With `Cc1ccc(-c2nn(C(C)(C)C)c3ncnc(N)c23)cc1` [PP1], the c-Src inhibition result on c-Src is given as “durable c-Src inhibition”. In addition, in the test on STAT3 [1] (Western blot), the “STAT3 inhibition / re-activation” value is “not inhibited at 24 hours”.

`COc1cc(Nc2c(C#N)cnc3cc(OCCCN4CCN(C)CC4)c(OC)cc23)c(Cl)cc1Cl` [SKI606]: the c-Src inhibition entry at c-Src is “durable c-Src inhibition”. Also, the “STAT3 inhibition / re-activation” value with STAT3 [1] (Western blot) is listed as “not inhibited at 24 hours”.

In the case of `Cc1nc(Nc2ncc(C(=O)Nc3c(C)cccc3Cl)s2)cc(N2CCN(CCO)CC2)n1` [dasatinib, N-(2-chloro-6-methylphenyl)-2-[[6-[4-(2-hydroxyethyl)-1-piperazinyl]-2-methyl-4-pyrimidinyl]amino]-5-thiazolecarboxamide], the AKT inhibition result is “durable inhibition” in the test with AKT (setting [8]); “rapidly and durably inhibited” in the test with AKT (setting [9]). Besides, the STATS inhibition entry is “durable inhibition” in the test on STAT5 (setting [8]); “rapidly and durably inhibited” in the test with STAT5 (setting [9]). The FAK inhibition result with FAK (setting [8]) was “durable inhibition”; in the test with FAK (setting [9]), “rapidly and durably inhibited”. For the same compound, the IGF1R activation entry at IGF1R is “nor did dasatinib affect IGF1R activation”. Also, in the test on IL-6, the IL-6 production result is on record as “decreased”. Further, the IL-8 production result with IL-8 is on record as “decreased”. Moreover, the “increase of any of 25 cytokines / growth factors assayed” value in test [3] was “No cytokine or growth factor assayed was significantly increased”. The “production of IL-1beta, IL-12p40, IL-15, TNF-alpha, interferon-alpha, inducible protein-10, MIG, RANTES, IL-10” value in test [3] is given as “unaffected”. Also, the MAPK activation result in the test on MAPK [4] is given as “transiently activated”. Moreover, the “effects in cancer cell lines” value in test [5] was “cytotoxicity, cell cycle arrest and apoptosis”. In addition, the “effect of SFK inhibition on STAT3 activation” value in the test on STAT3 [6] is recorded as “modest to absent”. Further, the “STAT3 activation (pSTAT3)” value in the test with STAT3 [1] (14 of 15 solid tumor cell lines (HNSCC, NSCLC, mesothelioma, squamous skin carcinoma), 100 nM dasatinib, 0-24 h, Western blot) was “intitally inhibited but levels of pSTAT3 (Y105) returned to or above baseline by 24 h; also recorded: initially inhibited but reactivated by 24 h”. In the test with STAT3 [1] (Western blot), the “STAT3 inhibition / re-activation” value is reported as “not inhibited at 24 hours”. Moreover, the STAT3 inhibition result in the test on STAT3 [1] (Tu167 cells, 100 nM dasatinib for the indicated times, Western blot) was “not durably inhibited”. In addition, the “STAT3 activation in fresh cells by conditioned medium” value in the test with STAT3 [1] (conditioned medium from Tu167 cells treated with dasatinib for 24 h transferred to fresh cells) is recorded as “did not observe any STAT3 activation”.

Regarding `C#Cc1cccc(Nc2ncnc3cc(OCCOC)c(OCCOC)cc23)c1` [erlotinib], the “effect of added inhibitor on STAT3 reactivation by dasatinib” value in the test on STAT3 [1] is “did not affect the STAT3 reactivation”.

Regarding `CC(C)(C)c1nc2c3cc[nH]c(=O)c3c3cc(F)ccc3c2[nH]1` [pyridone 6], the “STAT3 inhibition on addition of JAK inhibitor to dasatinib” value with STAT3 [1] is “sustained inhibition of STAT3”.

“EGF: epidermal growth factor, used to stimulate cells (NSDSECPLSHDGYCLHDGVCMYIEALDKYACNCVVGYIGERCQYRDLKWWELR; UniProt P01133 971-1023, looked up)”: the “MAPK activation on stimulation” value with MAPK [7] is on record as “markedly activated”. Besides, the “STAT3 activation on stimulation” value with STAT3 [1] (Tu167 cells treated with EGF) is reported as “slight increase in STAT3 activation”.

For insulin-like growth factor, the “STAT3 activation on stimulation” value with STAT3 [1] (stimulation of cells with insulin-like growth factor) is “did not lead to significant activation of STAT3”.
